Experimental findings from PubChem BioAssay (NCI) are described below.

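Grown in 96-well plates, cells were treated for 48 hours with each compound at five concentrations. Insufficient inhibition: endpoint recorded as highest concentration tested. Abbreviation: GI50, concentration required for 50% inhibition of growth. TGI: total growth inhibition.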

Among the test systems are SK-MEL-2 melanoma; SF-295 CNS; EKVX NSCLC; RPMI-8226 leukemia; U251 CNS; HS 578T breast; UACC-62 melanoma; NCI-H522 lung; CAKI-1 renal; HL-60(TB) leukemia.
What all share (test): NCI tumour cell line growth inhibition, 48 h

On to `CCOP(=O)(Nc1ccc2oc(=O)c3ccccc3c2c1)OCC`, for which the TGI in the test with SK-MEL-2 melanoma is greater than 100 µM; in the test with SF-295 CNS, greater than 100 µM; in the test on EKVX NSCLC, greater than 100 µM; with RPMI-8226 leukemia it was 98.2 µM; in the test on U251 CNS, greater than 100 µM; in the test with HS 578T breast, greater than 100 µM. In addition, the TGI in the test with UACC-62 melanoma was greater than 100 µM; in the test on NCI-H522 lung, greater than 100 µM; in the test with CAKI-1 renal, greater than 100 µM; with HL-60(TB) leukemia, 55.8 µM.
Take `COc1cc(/C=C(\C#N)C(N)=C(C#N)C#N)cc(O)c1O`: the TGI with SK-MEL-2 melanoma, with SF-295 CNS, in the test with EKVX NSCLC, in the test with RPMI-8226 leukemia, in the test with U251 CNS and in the test with HS 578T breast was greater than 100 µM each time. The TGI with UACC-62 melanoma was greater than 100 µM; in the test with NCI-H522 lung, greater than 100 µM; with CAKI-1 renal, greater than 100 µM; in the test on HL-60(TB) leukemia, greater than 81.5 µM.
With `O=C1CN(/N=C/c2ccc(-c3ccc(F)cc3)o2)C(=O)N1`, the TGI with SK-MEL-2 melanoma, with SF-295 CNS, with EKVX NSCLC, in the test on RPMI-8226 leukemia, with U251 CNS and in the test with HS 578T breast was greater than 100 µM throughout. Moreover, the TGI is greater than 100 µM in the test with UACC-62 melanoma, 85 µM with NCI-H522 lung, greater than 100 µM with CAKI-1 renal and greater than 100 µM in the test on HL-60(TB) leukemia.
For `CC(NC(=O)c1ccccc1)(C(=O)O)C(=O)O`, the TGI with SK-MEL-2 melanoma, in the test with SF-295 CNS, in the test on EKVX NSCLC, with RPMI-8226 leukemia, with U251 CNS and with HS 578T breast was greater than 100 µM in each case. In addition, the TGI with UACC-62 melanoma, with NCI-H522 lung, with CAKI-1 renal and with HL-60(TB) leukemia was greater than 100 µM each time.
As for `O=C(Nc1ccccc1C(=O)N/N=C(\c1ccccc1)c1ccccn1)c1ccc(F)cc1`, the GI50 in the test on SK-MEL-2 melanoma was 7.01 µM; in the test with SF-295 CNS, 0.262 µM; in the test on EKVX NSCLC, 0.169 µM; in the test with RPMI-8226 leukemia it was 0.51 µM; in the test on U251 CNS it was 0.297 µM; in the test on HS 578T breast it was 6.48 µM. The GI50 is 0.308 µM in the test with UACC-62 melanoma, 0.393 µM in the test with NCI-H522 lung, 0.42 µM in the test on CAKI-1 renal and 0.297 µM with HL-60(TB) leukemia. Also, the TGI in the test on SK-MEL-2 melanoma, with SF-295 CNS, with EKVX NSCLC, with RPMI-8226 leukemia, with U251 CNS and with HS 578T breast was greater than 100 µM throughout. For the same compound, the TGI in the test with UACC-62 melanoma is 2.03 µM; in the test with NCI-H522 lung, greater than 28.6 µM; with CAKI-1 renal, greater than 100 µM; in the test with HL-60(TB) leukemia, 2.01 µM.
For `Cc1cc(Cl)ccc1Nc1nc(C(F)(F)F)ccc1C(=O)N1CCN(c2cccc(Cl)c2)CC1`, the GI50 with SK-MEL-2 melanoma was greater than 100 µM; in the test with SF-295 CNS it was 88.9 µM; with EKVX NSCLC, greater than 100 µM; with RPMI-8226 leukemia, 37.2 µM; with U251 CNS, greater than 100 µM; in the test with HS 578T breast, 3.89 µM. The GI50 was greater than 100 µM in the test on UACC-62 melanoma, greater than 100 µM in the test on NCI-H522 lung, 90.7 µM with CAKI-1 renal and 69.6 µM in the test on HL-60(TB) leukemia. Also, the TGI in the test on SK-MEL-2 melanoma, with SF-295 CNS, with EKVX NSCLC, with RPMI-8226 leukemia, with U251 CNS and in the test with HS 578T breast was greater than 100 µM each time. Moreover, the TGI in the test with UACC-62 melanoma, with NCI-H522 lung, with CAKI-1 renal and in the test on HL-60(TB) leukemia was greater than 100 µM in each case.
Regarding `Oc1ccc(Cl)cc1Cc1cc(Cl)ccc1O`, the GI50 is 2.21 µM in the test with SK-MEL-2 melanoma; 2.27 µM with SF-295 CNS; 2.65 µM with EKVX NSCLC; 1.53 µM in the test on RPMI-8226 leukemia; 2.32 µM in the test on U251 CNS; 1.91 µM in the test on HS 578T breast. In addition, the GI50 in the test with UACC-62 melanoma is 2.77 µM; in the test on NCI-H522 lung, 1.92 µM; in the test on CAKI-1 renal, 2.8 µM; in the test with HL-60(TB) leukemia, 2.42 µM. The TGI was found to be 5.02 µM in the test with SK-MEL-2 melanoma; 6.09 µM in the test with SF-295 CNS; 8.84 µM in the test on EKVX NSCLC; 5.1 µM in the test with RPMI-8226 leukemia; 11.6 µM in the test with U251 CNS; 7.35 µM in the test on HS 578T breast. Moreover, the TGI in the test with UACC-62 melanoma was found to be 10.5 µM; in the test with NCI-H522 lung, 5.32 µM; in the test with CAKI-1 renal, 9.38 µM; in the test on HL-60(TB) leukemia, 6.05 µM.
For `COc1cnc2cc(C(=O)O)c3ccccc3c2c1`, the TGI in the test with SK-MEL-2 melanoma, in the test on SF-295 CNS, with EKVX NSCLC, with RPMI-8226 leukemia, in the test on U251 CNS and in the test on HS 578T breast was greater than 100 µM throughout. For the same compound, the TGI in the test with UACC-62 melanoma, with NCI-H522 lung, in the test on CAKI-1 renal and with HL-60(TB) leukemia was greater than 100 µM throughout.
